Activity calls are given as the source filed them. No rule for the calls is given here.
Tested on: CCRIS mutagenicity, Ames/micronucleus/aberration tests
Experiment: CCRIS mutagenicity studies
[1] = Test System: AMES SALMONELLA TYPHIMURIUM, Strain/Indicator: TA98, Metabolic Activation: NONE, Method: STANDARD PLATE
[2] = Test System: AMES SALMONELLA TYPHIMURIUM, Strain/Indicator: TA100, Metabolic Activation: NONE, Method: STANDARD PLATE
[3] = Test System: AMES SALMONELLA TYPHIMURIUM, Strain/Indicator: TA98, Metabolic Activation: NONE, Method: PREINCUBATION
[4] = Test System: AMES SALMONELLA TYPHIMURIUM, Strain/Indicator: TA100, Metabolic Activation: NONE, Method: PREINCUBATION
[5] = Test System: AMES SALMONELLA TYPHIMURIUM, Strain/Indicator: TA1535, Metabolic Activation: NONE, Method: PREINCUBATION
[6] = Test System: AMES SALMONELLA TYPHIMURIUM, Strain/Indicator: TA98, Metabolic Activation: RAT, LIVER, S-9, AROCLOR 1254, Method: STANDARD PLATE

In the case of `O=[N+]([O-])c1cc2ccccc2c2c([N+](=O)[O-])cccc12`, the mutagenic call (Test System: AMES SALMONELLA TYPHIMURIUM, Strain/Indicator: TA98(1,8-DNP6), Metabolic Activation: NONE, Method: STANDARD PLATE) was “active; positive”, the mutagenic call (Test System: AMES SALMONELLA TYPHIMURIUM, Strain/Indicator: TA98(NR), Metabolic Activation: NONE, Method: STANDARD PLATE) was “active; positive” and the mutagenic call [1] was “active; positive”. The mutagenic call [2] was “active; positive”, the mutagenic call (Test System: AMES SALMONELLA TYPHIMURIUM, Strain/Indicator: YG1021, Metabolic Activation: NONE, Method: STANDARD PLATE) was “active; positive” and the mutagenic call (Test System: AMES SALMONELLA TYPHIMURIUM, Strain/Indicator: YG1024, Metabolic Activation: NONE, Method: STANDARD PLATE) was “active; positive”. The mutagenic call (Test System: AMES SALMONELLA TYPHIMURIUM, Strain/Indicator: YG1026, Metabolic Activation: NONE, Method: STANDARD PLATE) was “active; positive” and the mutagenic call (Test System: AMES SALMONELLA TYPHIMURIUM, Strain/Indicator: YG1029, Metabolic Activation: NONE, Method: STANDARD PLATE) was “active; positive”.
In the case of `CCCCC(CC)COC(=O)c1cccc(C(=O)OCC(CC)CCCC)c1` (stereo not drawn), the mutagenic call (Test System: AMES SALMONELLA TYPHIMURIUM, Strain/Indicator: TA97, Metabolic Activation: HAMSTER, LIVER, S-9, AROCLOR 1254 (10 OR 30%), Method: PREINCUBATION) was “inactive; negative”, the mutagenic call (Test System: AMES SALMONELLA TYPHIMURIUM, Strain/Indicator: TA97, Metabolic Activation: NONE, Method: PREINCUBATION) was “inactive; negative” and the mutagenic call (Test System: AMES SALMONELLA TYPHIMURIUM, Strain/Indicator: TA97, Metabolic Activation: RAT, LIVER, S-9, AROCLOR 1254 (10 OR 30%), Method: PREINCUBATION) was “inactive; negative”. For the same molecule, the mutagenic call (Test System: AMES SALMONELLA TYPHIMURIUM, Strain/Indicator: TA98, Metabolic Activation: HAMSTER, LIVER, S-9, AROCLOR 1254 (10 OR 30%), Method: PREINCUBATION) was “inactive; negative”, the mutagenic call [3] was “inactive; negative” and the mutagenic call (Test System: AMES SALMONELLA TYPHIMURIUM, Strain/Indicator: TA98, Metabolic Activation: RAT, LIVER, S-9, AROCLOR 1254 (10 OR 30%), Method: PREINCUBATION) was “inactive; negative”. For the same molecule, the mutagenic call (Test System: AMES SALMONELLA TYPHIMURIUM, Strain/Indicator: TA100, Metabolic Activation: HAMSTER, LIVER, S-9, AROCLOR 1254 (10 OR 30%), Method: PREINCUBATION) was “inactive; negative”, the mutagenic call [4] was “inactive; negative” and the mutagenic call (Test System: AMES SALMONELLA TYPHIMURIUM, Strain/Indicator: TA100, Metabolic Activation: RAT, LIVER, S-9, AROCLOR 1254 (10 OR 30%), Method: PREINCUBATION) was “inactive; negative”. The mutagenic call (Test System: AMES SALMONELLA TYPHIMURIUM, Strain/Indicator: TA1535, Metabolic Activation: HAMSTER, LIVER, S-9, AROCLOR 1254 (10 OR 30%), Method: PREINCUBATION) was “inactive; negative”, the mutagenic call [5] was “inactive; negative” and the mutagenic call (Test System: AMES SALMONELLA TYPHIMURIUM, Strain/Indicator: TA1535, Metabolic Activation: RAT, LIVER, S-9, AROCLOR 1254 (10 OR 30%), Method: PREINCUBATION) was “inactive; negative”.
`C1=CC2=C3OC3=C3c4ccc5ccccc5c4CC(=C1)C23` (stereo not drawn) was tested, and the mutagenic call [1] was “active; positive” and the mutagenic call [6] was “active; positive”.
With `Nc1cc(C(F)(F)F)ccc1Cl` the mutagenic call [1] was “inactive; negative”, the mutagenic call [6] was “inactive; negative” and the mutagenic call [2] was “inactive; negative”. For the same molecule, the mutagenic call (Test System: AMES SALMONELLA TYPHIMURIUM, Strain/Indicator: TA100, Metabolic Activation: RAT, LIVER, S-9, AROCLOR 1254, Method: STANDARD PLATE) was “inactive; negative”, the mutagenic call (Test System: AMES SALMONELLA TYPHIMURIUM, Strain/Indicator: TA1535, Metabolic Activation: NONE, Method: STANDARD PLATE) was “inactive; negative” and the mutagenic call (Test System: AMES SALMONELLA TYPHIMURIUM, Strain/Indicator: TA1535, Metabolic Activation: RAT, LIVER, S-9, AROCLOR 1254, Method: STANDARD PLATE) was “inactive; negative”. The mutagenic call (Test System: AMES SALMONELLA TYPHIMURIUM, Strain/Indicator: TA1537, Metabolic Activation: NONE, Method: STANDARD PLATE) was “inactive; negative”, the mutagenic call (Test System: AMES SALMONELLA TYPHIMURIUM, Strain/Indicator: TA1537, Metabolic Activation: RAT, LIVER, S-9, AROCLOR 1254, Method: STANDARD PLATE) was “inactive; negative” and the mutagenic call (Test System: AMES SALMONELLA TYPHIMURIUM, Strain/Indicator: TA1538, Metabolic Activation: NONE, Method: STANDARD PLATE) was “inactive; negative”. For the same molecule, the mutagenic call (Test System: AMES SALMONELLA TYPHIMURIUM, Strain/Indicator: TA1538, Metabolic Activation: RAT, LIVER, S-9, AROCLOR 1254, Method: STANDARD PLATE) was “inactive; negative”.
In the case of `CCCCN(CCCC)[N+](=O)[O-]`, the mutagenic call (Test System: E. COLI, Strain/Indicator: WP2 (HCR-), Metabolic Activation: RAT, LIVER, MICROSOMES, PHENOBARBITAL) was “active; positive”.
In the case of `CC(C)=CCl`, the mutagenic call (End Point: IN VITRO CHROMOSOMAL ABERRATIONS, Test System: CHO CELLS, Metabolic Activation: NONE) was “inactive; negative”, the mutagenic call (End Point: IN VITRO CHROMOSOMAL ABERRATIONS, Test System: CHO CELLS, Metabolic Activation: RAT, LIVER, S-9, AROCLOR 1254) was “inactive; negative” and the mutagenic call (Test System: AMES SALMONELLA TYPHIMURIUM, Strain/Indicator: TA98, Metabolic Activation: HAMSTER, LIVER, S-9, AROCLOR 1254 (10%), Method: PREINCUBATION) was “inactive; negative”. For the same molecule, the mutagenic call [3] was “inactive; negative”, the mutagenic call (Test System: AMES SALMONELLA TYPHIMURIUM, Strain/Indicator: TA98, Metabolic Activation: RAT, LIVER, S-9, AROCLOR 1254 (10%), Method: PREINCUBATION) was “inactive; negative” and the mutagenic call (Test System: AMES SALMONELLA TYPHIMURIUM, Strain/Indicator: TA100, Metabolic Activation: HAMSTER, LIVER, S-9, AROCLOR 1254 (10%), Method: PREINCUBATION) was “inactive; negative”. The mutagenic call [4] was “inactive; negative”, the mutagenic call (Test System: AMES SALMONELLA TYPHIMURIUM, Strain/Indicator: TA100, Metabolic Activation: RAT, LIVER, S-9, AROCLOR 1254 (10%), Method: PREINCUBATION) was “inactive; negative” and the mutagenic call (Test System: AMES SALMONELLA TYPHIMURIUM, Strain/Indicator: TA102, Metabolic Activation: RAT, LIVER, S-9, PHENOBARBITAL AND 5,6-BENZOFLAVONE, Method: STANDARD PLATE) was “inactive; negative”. For the same molecule, the mutagenic call (Test System: AMES SALMONELLA TYPHIMURIUM, Strain/Indicator: TA1535, Metabolic Activation: HAMSTER, LIVER, S-9, AROCLOR 1254 (10%), Method: PREINCUBATION) was “inactive; negative”, the mutagenic call [5] was “inactive; negative” and the mutagenic call (Test System: AMES SALMONELLA TYPHIMURIUM, Strain/Indicator: TA1535, Metabolic Activation: RAT, LIVER, S-9, AROCLOR 1254 (10%), Method: PREINCUBATION) was “inactive; negative”. The mutagenic call (Test System: AMES SALMONELLA TYPHIMURIUM, Strain/Indicator: TA1537, Metabolic Activation: HAMSTER, LIVER, S-9, AROCLOR 1254 (10%), Method: PREINCUBATION) was “inactive; negative”, the mutagenic call (Test System: AMES SALMONELLA TYPHIMURIUM, Strain/Indicator: TA1537, Metabolic Activation: NONE, Method: PREINCUBATION) was “inactive; negative” and the mutagenic call (Test System: AMES SALMONELLA TYPHIMURIUM, Strain/Indicator: TA1537, Metabolic Activation: RAT, LIVER, S-9, AROCLOR 1254 (10%), Method: PREINCUBATION) was “inactive; negative”. For the same molecule, the mutagenic call (Test System: AMES SALMONELLA TYPHIMURIUM, Strain/Indicator: TA2638, Metabolic Activation: RAT, LIVER, S-9, PHENOBARBITAL AND 5,6-BENZOFLAVONE, Method: STANDARD PLATE) was “inactive; negative”, the mutagenic call (Test System: E. COLI, Strain/Indicator: WP2 (PKM101), Metabolic Activation: RAT, LIVER, S-9, PHENOBARBITAL AND 5,6-BENZOFLAVONE, Method: STANDARD PLATE) was “inactive; negative” and the mutagenic call (Test System: E. COLI, Strain/Indicator: WP2 UVRA (PKM101), Metabolic Activation: RAT, LIVER, S-9, PHENOBARBITAL AND 5,6-BENZOFLAVONE, Method: STANDARD PLATE) was “inactive; negative”. For the same molecule, the mutagenic call (Test System: MOUSE LYMPHOMA, Strain/Indicator: L5178Y (TK+/TK-), Metabolic Activation: RAT, LIVER, S-9, AROCLOR 1254, Method: SUSPENSION/PLATE) was “active; positive. reevaluation of results: positive” and the mutagenic call (Test System: Mouse lymphoma, Strain/Indicator: L5178Y (tk+/tk-), Metabolic Activation: None, Method: Suspension/plate) was “inactive; negative”.

Reference: PubChem BioAssay AID1259407 (Chemical Carcinogenesis Research Information System (CCRIS), 2018)
